Data taken from patent US20220111378A1, “METHODS AND SYSTEMS FOR DETERMINING TARGET SENSITIVITY TO A THERAPEUTIC FORMULA” (priority 2019, published 2022).

Assays:
[1] = test system: sterile urine sample spiked with clinical isolate EcUAH202; settings: EcUAH202 spiked into sterile urine; breakpoint concentrations; confirmed for ampicillin within approximately 5 minutes
Method: To prepare a spiked bacterial sample, 1 mL of an overnight culture was diluted into 25 mL of warm cation-adjusted Mueller Hinton broth, allowed to grow to log phase at 37 C in a shaking incubator, and counted using a hemocytometer. […] A 2-mL aliquot of the bacterial solution was added to a disposable 1-cm cuvette containing a pre-dispensed volume of water, diluent and antibiotic according to the experiment at hand. The fluids were mixed by pipetting. A no-antibiotic control was used in each experiment, which contained only the appropriate volume of water and diluent. A set of three cuvettes, such as in 41 or 43a, 43b or 43c, containing identical mixtures were assembled side-to-side into a three-centimeter light path and inserted into the prototype sensitivity module shown in FIGS. 2A and 2B. A total of four sets of cuvettes could be examined in the prototype at one time. The prototype maintains the cultures at 37 C with gentle agitation to mitigate the effects of bacterial settling. Optical transmissions through each set of cuvettes were taken every 5 seconds for the no-antibiotic control and the experimental cuvettes. The bacteria were allowed to grow from 10 minutes to two hours depending on the antibiotics and/or bacteria being tested. The final curves were analyzed to determine whether the bacteria were sensitive or resistant to each drug or drug combination. […]

[2] = test system: Staphylococcus aureus SaR100; assay: Growth curves at breakpoint concentrations compared with culture results (optical AST); type: cell-based; settings: clinical isolate SaR100, confirmed by growth curves within approximately 42 minutes
Method: (§1) To prepare a spiked bacterial sample, 1 mL of an overnight culture was diluted into 25 mL of warm cation-adjusted Mueller Hinton broth, allowed to grow to log phase at 37 C in a shaking incubator, and counted using a hemocytometer. The bacteria were then diluted in additional warm broth to a final concentration of 1E5 to 8E5 CFU/mL. A 2-mL aliquot of the bacterial solution was added to a disposable 1-cm cuvette containing a pre-dispensed volume of water, diluent and antibiotic according to the experiment at hand. The fluids were mixed by pipetting. A no-antibiotic control was used in each experiment, which contained only the appropriate volume of water and diluent. A set of three cuvettes, such as in 41 or 43a, 43b or 43c, containing identical mixtures were assembled side-to-side into a three-centimeter light path and inserted into the prototype sensitivity module shown in FIGS. 2A and 2B. A total of four sets of cuvettes could be examined in the prototype at one time. The prototype maintains the cultures at 37 C with gentle agitation to mitigate the effects of bacterial settling. Optical transmissions through each set of cuvettes were taken every 5 seconds for the no-antibiotic control and the experimental cuvettes. The bacteria were allowed to grow from 10 minutes to two hours depending on the antibiotics and/or bacteria being tested. The final curves were analyzed to determine whether the bacteria were sensitive or resistant to each drug or drug combination.
(§2) In the proof-of-concept device used to generate the data provided in this example, a 3-cm light path and lasers at 405 nm and 532 nm were used. Antimicrobial resistance profiles of 17 clinical isolates of 11 uropathogens were followed from 20 minutes to three hours, against 8 antibiotics, both lytic and static.

[3] = test system: Enterococcus faecalis EfR100; assay: as above; type: cell-based; settings: clinical isolate EfR100, confirmed by growth curves within approximately 33 minutes
Method: as §1, §2

[4] = test system: Escherichia coli EcUAH202; assay: as above; type: cell-based; settings: clinical isolate EcUAH202, confirmed for ampicillin and levofloxacin within approximately 7 minutes
Method: as §1, §2

[5] = test system: Pseudomonas aeruginosa PaH201; assay: as above; type: cell-based; settings: clinical isolate PaH201, confirmed for ampicillin and ciprofloxacin within approximately 42 minutes
Method: as §1, §2

[6] = test system: K. pneumoniae KpH201; settings: clinical isolate KpH201; breakpoint concentrations; confirmed by growth curves vs no-antibiotic control within approximately 20 minutes
Method: as §1, with “The bacteria were allowed to grow from 10 minutes to two hours depending on the antibiotics and/or bacteria being tested.” left out, “combination. […]” for “combination.”

[7] = test system: Candida tropicalis CanTCDC345; assay: Growth curves at breakpoint concentrations compared with culture results (optical AST); type: cell-based; settings: clinical isolate CanTCDC345, confirmed for caspofungin within approximately 12 minutes
Method: as §1, §2

SMILES | Culture results: sensitivity or resistance of the strain [1] | Culture results: sensitivity or resistance of the strain [2] | Culture results: sensitivity or resistance of the strain [3] | Culture results: sensitivity or resistance of the strain [4] | Culture results: sensitivity or resistance of the strain [5] | Culture results: sensitivity or resistance of the strain [6] | Culture results: sensitivity or resistance of the strain [7]
CC1(C)S[C@@H]2[C@H](NC(=O)[C@H](N)c3ccccc3)C(=O)N2[C@H]1C(=O)O [ampicillin] | resistance | sensitivity | sensitivity | resistance | resistance | sensitivity | 
CC[C@H](C)C[C@H](C)CCCCCCCCC(=O)N[C@H]1C[C@@H](O)[C@@H](NCCN)NC(=O)[C@@H]2[C@@H](O)CCN2C(=O)[C@H]([C@H](O)CCN)NC(=O)[C@H]([C@H](O)[C@@H](O)c2ccc(O)cc2)NC(=O)[C@@H]2C[C@@H](O)CN2C(=O)[C@H]([C@@H](C)O)NC1=O [caspofungin] |  |  |  |  |  |  | sensitivity
